Test results from patent publication US4172894A, “3-Thienyl-3-methyl-4-pentyl-2-pyridyl-ketone” (Laboratories Made, S.A., priority 1977, dated 1979).

What was measured:
[1] = Acute toxicity in mice, intraperitoneal, deaths counted 48 hours after treatment (Litchfield-Wilcoxon); parameters: species or system Swiss I.C.R. albino mice; conditions: mouse, in vivo, ip, deaths at 48 hours, Litchfield-Wilcoxon test
Procedure: Acute toxicity study was made in Swiss I.C.R. albino mice of both sexes of 30±2 g of weight, kept without food for 24 hours prior to the experiment. Ambient temperature and relative humidity were kept constant. The products were administered intraperitoneally, and 48 hours after treatment the number of deaths was counted. Calculation of the lethal dose (LD50) was made by the Litchfield-Wilcoxon test.

Swiss I.C.R. albino mice [2] = experiment: Thermal analgesia, 55° C. "hot plate" technique in mice; assay type: in vivo; conditions: 30 mg/kg, intraperitoneal, 30 minutes before 55° C. hot plate; control 38 ± 4.253
Procedure: The thermal analgesic effect was studied in Swiss I.C.R. albino mice. The 55° C. "hot plate" technique was used. Batches of 10 mice were made.
The products in study were administered intraperitoneally and after 30 minutes the mice were placed on the "hot plate", note having been made, in seconds, of the time it took them to jump. Batches of control animals were injected with only distilled water.

Swiss I.C.R. albino mice [3] = experiment: Chemical analgesia, acetic acid writhing technique in mice; assay type: in vivo; conditions: 25 mg/kg, intraperitoneal, 30 minutes before 0.25 ml of 1% acetic acid; counted 20 minutes later; control 121.5 ± 7.184
Procedure: The analgesic effect was studied in Swiss I.C.R. albino mice with the acetic acid writhing technique. Batches of 10 mice were made.
The products in study were administered intraperitoneally, and 30 minutes later 0.25 ml of 1% acetic acid were injected intraperitoneally. A batch of control animals received only the acetic acid. Twenty minutes following administration of the acetic acid, the number of writhes in each mouse is counted.

Structure (SMILES) | LD50 at 48 h [1] | Jumping time (mean ± S.E.M.) (Swiss I.C.R. albino mice [2]) | No. of writhes (mean ± S.E.M.) (Swiss I.C.R. albino mice [3])
CCC(=O)O[C@](Cc1ccccc1)(c1ccccc1)[C@H](C)CN(C)C [Dextropropoxyphene, dextropropoxyphene] | 140 mg/kg | 83.7 see. | 62.8
CCCCCc1ccnc(C(=O)c2ccsc2)c1C [Product I, 3-thienyl-3-methyl-4-pentyl-2-pyridyl-ketone] | 718 mg/kg | 96.7 see. | 35.75
